According to patent publication US7183061B2, “Method of expressing Heliothis ecdysone receptor fusion protein” (Syngenta Limited, priority 1996, dated 2007):

What was measured:
[1] = molecular target: T1, glucocorticoid/Heliothis ecdysone chimeric receptor (UniProt O18473+P04150); test: Maize protoplast GUS reporter assay with pMF6GRHEcR and p221.9GRE6; assay type: cell-based, Heliothis virescens; design: expressed in transfected cells; host or cells: maize protoplasts (A5); tobacco mesophyll protoplasts (A6); CHO-K1 (A7); HEK293 (A8); stably transformed tobacco plants (A9); settings: maize protoplasts
T1 sequence (P04150+O18473 with tags, fused parts or gaps): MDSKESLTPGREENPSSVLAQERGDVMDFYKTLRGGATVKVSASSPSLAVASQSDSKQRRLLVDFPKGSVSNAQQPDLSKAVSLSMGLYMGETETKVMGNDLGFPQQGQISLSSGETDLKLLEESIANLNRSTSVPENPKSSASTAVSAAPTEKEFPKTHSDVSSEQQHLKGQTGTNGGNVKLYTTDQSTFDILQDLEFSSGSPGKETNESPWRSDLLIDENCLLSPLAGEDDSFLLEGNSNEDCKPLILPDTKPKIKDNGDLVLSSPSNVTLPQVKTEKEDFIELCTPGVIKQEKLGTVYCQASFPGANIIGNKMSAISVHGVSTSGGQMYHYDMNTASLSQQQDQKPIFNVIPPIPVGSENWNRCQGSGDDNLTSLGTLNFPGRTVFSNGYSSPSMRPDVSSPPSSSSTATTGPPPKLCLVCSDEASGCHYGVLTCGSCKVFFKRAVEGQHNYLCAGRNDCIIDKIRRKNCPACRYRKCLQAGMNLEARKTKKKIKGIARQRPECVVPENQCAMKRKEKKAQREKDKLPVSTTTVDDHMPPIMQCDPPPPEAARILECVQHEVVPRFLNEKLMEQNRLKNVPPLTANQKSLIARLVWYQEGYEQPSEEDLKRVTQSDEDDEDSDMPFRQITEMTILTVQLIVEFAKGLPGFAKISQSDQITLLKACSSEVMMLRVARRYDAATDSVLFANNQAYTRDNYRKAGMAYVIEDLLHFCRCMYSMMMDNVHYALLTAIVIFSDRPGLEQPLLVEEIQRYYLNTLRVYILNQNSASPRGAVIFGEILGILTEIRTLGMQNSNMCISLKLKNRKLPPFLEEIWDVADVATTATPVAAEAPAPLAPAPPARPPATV
Description: Protoplasts were isolated from a maize suspension culture derived from BE70×A188 embryogenic callus material, which was maintained by subculturing twice weekly in MS0.5mod. (MS medium supplemented with 3% sucrose, 690 mg/l proline, 1 g/l myo-inositol, 0.2 g/l casein acid hydrolysate, 0.5 mg/l 2,4-D, pH 5.6). Cells from suspensions two days post subculture were digested in enzyme mixture (2.0% Cellulase RS, 0.2% Pectolyase Y23, 0.5 M Mannitol, 5 mM CaCl2.2H2O, 0.5% MES, pH 5.6, ˜660 mmol/kg) using ˜10 ml/g cells, incubating at 25° C., dim light, rotating gently for ˜2 hours. The digestion mixture was sieved sequentially through 250 μm and 38 μm sieves, and the filtrate centrifuged at 700 rpm for 3.5 minutes, discarding the supernatant. The protoplasts were resuspended in wash buffer (0.358 M KCl, 1.0 mM NH4NO3, 5.0 mM CaCl2.2H2O, 0.5 mM KH2PO4, pH 4.8, ˜670 mmol/kg) and pelleted as before. This washing step was repeated. The pellet was resuspended in wash buffer and the protoplasts were counted. Transformation was achieved using a Polyethylene glycol method based on Negrutiu et al. Protoplasts were resuspended at 2×10^6/ml in MaMg medium (0.4 M Mannitol, 15 mM MgCl2, 0.1% MES, pH 5.6, ˜450 mmol/kg) aliquotting 0.5 ml/treatment (i.e. 1×10^6 protoplasts/treatment). Samples were heat shocked at 45° C. for 5 minutes then cooled to room temperature. […]

[2] = molecular target: T1, glucocorticoid/Heliothis ecdysone chimeric receptor; test: HEK293 cells co-transfected with pcDNA3GRHEcR and pSWGRE4 (β-galactosidase reporter); assay type: cell-based, Heliothis virescens; design: expressed in transfected cells; host or cells: HEK293 (A8); settings: co-transformed HEK293 cells (FIG. 28)
Description: Transfections of mammalian cell lines (CHO-K1 Chinese hamster ovary) ATCC number CCL61 or cos-1 (Monkey cell line) were performed using either calcium phosphate precipitation (Gorman, Chapter 6 of “DNA cloning: a practical approach. Vol 2 D. M. Glover ed/.(1985) IRL Press, Oxford) or using LipofectAMINE (Gibco BRL Cat. No. 18324–012, following manufacturer's instructions). […] 293 cells were transfected using analogous methods.
The mammalian expression vector used in this experiment was pcDNA3 (Invitrogen). The GRHEcR 2.7 kb BamHI DNA fragment (isolated from pMF6GRHEcR) was introduced into the pcDNA3 BamHI vector. The recombinants were oriented by restriction enzyme mapping. The DNA sequence of the junctions was determined to ensure correct orientation and insertion (pcDNA3GRHEcR, FIG. 25).
The reporter plasmid for mammalian cell system was produced by taking pSWBGAL plasmid and replacing the CRESW SpeI/ClaI fragment for a synthetic 105 bp DNA fragment containing 4 copies of the glucocorticoid response element (GRE) and flanked by SpeI at the 5′ end and AflII at the 3′ end.
The two oligonucleotides were purified annealed and ligated to pSWBGAL SpeI/AflII to produce pSWGRE4 (FIG. 26).

| Compound | response of reporter ([1]; 100 μM) | chemical induced reporter gene activity [2] | chemical induced reporter gene activity ([1]; concentration not printed (FIG. 20)) |
| --- | --- | --- | --- |
| CC(C)CC[C@@H](O)[C@](C)(O)[C@H]1CC[C@@]2(O)C3=CC(=O)[C@]4(O)C[C@@H](O)[C@@H](O)C[C@]4(C)[C@H]3[C@H](O)C[C@]12C [Muristerone A] | no response | induction of reporter activity was observed | – |
| CCc1ccc(C(=O)NN(C(=O)c2cc(C)cc(C)c2)C(C)(C)C)cc1 [RH5992, 3,5-dimethylbenzoic acid 1-1(1,1-dimethylethyl)-2(4-ethylbenzoyl)hydrazide] | – | significant chemical induced reporter gene activity | significant chemical induced reporter gene activity |
